The results in this text go back to patent US5639726A, “Peptide mediated enhancement of thrombolysis methods and compositions” (The Regents of the University of Michigan, priority 1994, dated 1997).

Test [1] deals with T1, PAI-1 (Homo sapiens, UniProt P05121).
T1 construct: made in house; host or cells: E. coli (vector pET3a)
In words: Kinetics of peptide annealing: residual PAI inhibitory activity assayed with β-trypsin and S-2222. To be noted: for IC50: FIG. 2, read-out: IC50 for the inactivation of PAI-1; for kobs / k: 25° C.; for half-life of PAI-1 decreased to: summary of Example 2, peptide concentration not given. The format is biochemical. The protocol: PAI-1 (6.4 μM) was incubated with increasing concentrations of each peptide at 23° C. and the (T1/2) of PAI-1 inactivation was determined by measuring the PAI-1 activity remaining over time.
Peptides were dissolved in 1 mM HCl+1% TWEEN-80 (the three PAI peptides) (SEQ ID NOS: 1-3), or in 0.1M HEPES (SEQ ID NOS: 4-5), 0.1M NaCl, 0.1% PEG-8000, pH […] (the two consensus peptides). Peptides were annealed to active PAI by incubation of active PAI in 0.1M HEPES, 0.1M NaCl, 0.1% PEG-8000, pH 7.4 with a peptide in its solvent. Ten percent of the final incubation mixture consisted of the peptide solvent. Incubation was carried out at 25° C. until no PAI inhibitory activity remained as determined by kinetics rate assays with trypsin, described below. The final concentration of PAI in the incubation mixture was either 0.9 μM (for kinetics assays) or 6.3 μM (for gels and purification). The peptide concentrations varied greatly due to the individual solubilities and rates of insertion of each peptide. These concentrations are given in the legends of the appropriate figures.
During annealing of 0.9 μM PAI with a peptide, the residual inhibitory activity of PAI was measured after varying incubation times by assaying an aliquot of the sample with β-trypsin. Trypsin (1 nM final concentration) was added to the chromogenic substrate S-2222 (950 μM) with 27 nM PAI sample. The absorbance at 405 nm was measured continuously for at least 12.5 min in a Shimadzu UV-265 UV-visible spectrophotometer. The pseudo-first order rate constant of trypsin is an indirect measure of the amount of PAI that has lost inhibitory activity due either to annealing or to becoming latent. The rate constant of controls containing the peptide solvent but no peptide was subtracted from that of the experimental assays in order to correct for the effect of the simultaneous change of PAI from the active to the latent state.

The target of test [2] is T1, PAI-1. As to the kind of experiment: Native gel electrophoresis of PAI incubated with peptide. The format is binding. The method, then:
SDS-polyacrylamide gel electrophoresis (SDS-PAGE) under nonreducing conditions was carried out according to the method of Laemmli (Laemmli, 1970) on 10% gels. Native gel electrophoresis with 5% gels was carried out by omitting SDS and boiling from Laemmli's method. All gels were stained with Coomassie brilliant blue. Gels of PAI-peptide samples were scanned with an LKB Ultroscan XL Laser Densitometer to determine the relative amounts of peptide-annealed and latent PAI.
Four of the five peptides have a net negative charge due to glutamic acid residues and the free carboxy terminus (FIG. 1). The wtPAI 8-mer has a net -1 charge (the carboxy terminus). The V→E PAI 8-mer (SEQ ID NO:3) and consensus 8-mer (SEQ ID NO:4) each have a -2 charge (the glutamic acid residue and the carboxyl group). […] The PAI 14-mer (SEQ ID NO:1) is uncharged since it contains no glutamic acid and the arginine and carboxyl groups neutralize each other. Because of the negative charges of 4 of the peptides, native gels of PAI annealed to these peptides should show a band which migrates more quickly than the band representative of free active PAI. Similarly, if one of these peptides is incubated with PAI but fails to form a strong interaction with PAI, native gels should show a band which migrates identically to the free PAI.

The target in test [3] is T1, PAI-1. In words: Kinetics of peptide annealing: residual PAI inhibitory activity assayed with β-trypsin and S-2222. The format is biochemical. To be noted: for lowest PAI-1 functional half-life obtained with increasing concentrations of peptide: 9.0 hr in the absence of peptide.
The test system of the next test is normal human plasma. As to the kind of experiment: Activated partial thromboplastin time (APTT) in normal human plasma, with porcine coronary thrombus extract. The format is biochemical. The protocol:
Platelets contain several factors that inhibit heparin, including platelet factor 4, heparatinase, and histidine-rich glycoprotein. In an attempt to study potential heparin resistance within the microenvironment of the coronary thrombus the coronary thrombi previously analyzed for PAI-1 content were also assessed for their capacity to inhibit heparin in vitro (Eitzman et al., 1994). Pharmaceutical grade, unfractionated heparin was added to normal human plasma in sufficient quantity (0.12 U/mL) to prolong the activated partial thromboplastin time (APTT) to approximately 2× control. APTT determinations were then repeated after the addition of 2.5 μL of thrombus extract per 100 μL of heparinized plasma.
Similar experiments were also performed using recombinant hirudin as anticoagulant. In these experiments, hirudin (0.17 μg/mL) was used to prolong the APTT to approximately twice control values. However, unlike the case with heparin, thrombus extracts had no effect on capacity of hirudin to prolong the APTT (FIG. 9a).

Ends that are not written are not given here.

T1 sequence (P05121 24-402): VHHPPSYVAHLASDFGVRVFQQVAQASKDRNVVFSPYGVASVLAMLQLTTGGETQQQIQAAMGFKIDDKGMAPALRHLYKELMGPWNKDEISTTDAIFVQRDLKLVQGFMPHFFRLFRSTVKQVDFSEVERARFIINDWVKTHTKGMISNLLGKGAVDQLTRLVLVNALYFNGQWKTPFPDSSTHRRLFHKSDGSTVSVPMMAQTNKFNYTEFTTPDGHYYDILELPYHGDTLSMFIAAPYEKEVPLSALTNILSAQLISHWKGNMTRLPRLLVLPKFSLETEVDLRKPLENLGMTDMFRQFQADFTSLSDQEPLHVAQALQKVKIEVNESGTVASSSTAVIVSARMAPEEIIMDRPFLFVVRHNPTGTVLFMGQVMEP

On to “Ac-TEASSSTA [SEQ ID NO: 3, Thr-Glu-Ala-Ser-Ser-Ser-Thr-Ala]”, for which the IC50 (in general, the midpoint of a concentration-inhibition curve) at PAI-1 [1] stood at 1600 µM. Besides, the kobs result on PAI-1 [1] (peptide .05 mM) was “.090 h⁻¹”; on PAI-1 [1] (peptide .246 mM), “.33 h⁻¹”; on PAI-1 [1] (peptide .6 mM), “.98 h⁻¹”; on PAI-1 [3] (peptide .1 mM, 25° C.) it was “.13 h⁻¹”; on PAI-1 [3] (peptide .15 mM, 25° C.) it was “.20 h⁻¹”; at PAI-1 [3] (peptide .2 mM, 25° C.), “.28 h⁻¹”. In addition, the kobs result was “.42 h⁻¹” on PAI-1 [3] (peptide .3 mM, 25° C.); “.48 h⁻¹” at PAI-1 [3] (peptide .4 mM, 25° C.); “.79 h⁻¹” at PAI-1 [3] (peptide .5 mM, 25° C.). In addition, the k entry at PAI-1 [1] (peptide .1 mM) is “.35 M⁻¹ s⁻¹”; at PAI-1 [1] (peptide .4 mM) it was “.33 M⁻¹ s⁻¹”; at PAI-1 [3] (peptide .05 mM, 25° C.), “.50 M⁻¹ s⁻¹”; on PAI-1 [3] (peptide .15 mM, 25° C.), “.37 M⁻¹ s⁻¹”; at PAI-1 [3] (peptide .2 mM, 25° C.), “.40 M⁻¹ s⁻¹”; at PAI-1 [3] (peptide .246 mM, 25° C.), “.37 M⁻¹ s⁻¹”. Moreover, the k entry was “.39 M⁻¹ s⁻¹” on PAI-1 [3] (peptide .3 mM, 25° C.); “.44 M⁻¹ s⁻¹” at PAI-1 [3] (peptide .5 mM, 25° C.); “.45 M⁻¹ s⁻¹” at PAI-1 [3] (peptide .6 mM, 25° C.). Also, the “half-life of PAI-1 decreased to” value at PAI-1 [1] is 1.2 h. Besides, at PAI-1 [2], the “electrophoretic mobility of active PAI incubated with peptide, native gel” value is “Only a single major band”. Also, the “lowest PAI-1 functional half-life obtained with increasing concentrations of peptide” value on PAI-1 [3] (25° C.) came out at 1.2 h. The “t1/2 of PAI-1 inactivation” value on PAI-1 [3] (peptide .05 mM, 25° C.) worked out at 7.7 h; at PAI-1 [3] (peptide .1 mM, 25° C.), 5.5 h; on PAI-1 [3] (peptide .15 mM, 25° C.), 3.5 h; on PAI-1 [3] (peptide .2 mM, 25° C.) it was 2.4 h; on PAI-1 [3] (peptide .246 mM, 25° C.), 2.1 h; on PAI-1 [3] (peptide .3 mM, 25° C.), 1.7 h. Also, the “t1/2 of PAI-1 inactivation” value at PAI-1 [3] (peptide .4 mM, 25° C.) is 1.4 h; at PAI-1 [3] (peptide .5 mM, 25° C.), “.87 h”; at PAI-1 [3] (peptide .6 mM, 25° C.) it was “.71 h”.

On to “Ac-TEAAAATG [SEQ ID NO: 4, Thr-Glu-Ala-Ala-Ala-Ala-Thr-Gly]”, for which the IC50 at PAI-1 [1] came to 1600 µM. For the same substance, the kobs result on PAI-1 [1] (peptide 2.5 mM) is “.21 h⁻¹”; on PAI-1 [1] (peptide 5.04 mM), “.38 h⁻¹”; at PAI-1 [3] (peptide 1.5 mM, 25° C.), “.13 h⁻¹”; on PAI-1 [3] (peptide 3.5 mM, 25° C.), “.28 h⁻¹”; on PAI-1 [3] (peptide 7 mM, 25° C.) it was “.44 h⁻¹”; at PAI-1 [3] (peptide 9 mM, 25° C.) it was “.54 h⁻¹”. The kobs result on PAI-1 [3] (peptide 11 mM, 25° C.) was “.58 h⁻¹”. For the same substance, the “half-life of PAI-1 decreased to” value on PAI-1 [1] came to 1.3 h. Moreover, the “lowest PAI-1 functional half-life obtained with increasing concentrations of peptide” value at PAI-1 [3] (25° C.) was found to be 1.2 h. Further, the k result at PAI-1 [3] (peptide 1.5 mM, 25° C.) was “.024 M⁻¹ s⁻¹”; at PAI-1 [3] (peptide 2.5 mM, 25° C.), “.024 M⁻¹ s⁻¹”; on PAI-1 [3] (peptide 3.5 mM, 25° C.), “.022 M⁻¹ s⁻¹”; on PAI-1 [3] (peptide 5.04 mM, 25° C.), “.021 M⁻¹ s⁻¹”; at PAI-1 [3] (peptide 7 mM, 25° C.), “.017 M⁻¹ s⁻¹”; at PAI-1 [3] (peptide 9 mM, 25° C.), “.017 M⁻¹ s⁻¹”. The k entry on PAI-1 [3] (peptide 11 mM, 25° C.) is “.015 M⁻¹ s⁻¹”. In addition, the “t1/2 of PAI-1 inactivation” value on PAI-1 [3] (peptide 1.5 mM, 25° C.) was determined as 5.4 h; at PAI-1 [3] (peptide 2.5 mM, 25° C.) it was 3.3 h; on PAI-1 [3] (peptide 3.5 mM, 25° C.) it was 2.5 h; at PAI-1 [3] (peptide 5.04 mM, 25° C.) it was 1.8 h; on PAI-1 [3] (peptide 7 mM, 25° C.), 1.6 h; at PAI-1 [3] (peptide 9 mM, 25° C.), 1.3 h. The “t1/2 of PAI-1 inactivation” value at PAI-1 [3] (peptide 11 mM, 25° C.) amounted to 1.2 h.

As to “Ac-TVASSSTA [SEQ ID NO: 2, Thr-Val-Ala-Ser-Ser-Ser-Thr-Ala]”, on PAI-1 [1], the IC50 came out at 230 µM and the “half-life of PAI-1 decreased to” value was 0.717 h. Also, the “electrophoretic mobility of active PAI incubated with peptide, native gel” value on PAI-1 [2] is listed as “two bands”. Besides, the “lowest PAI-1 functional half-life obtained with increasing concentrations of peptide” value on PAI-1 [3] (25° C.) worked out at 0.7 h. Further, the “t1/2 of PAI-1” value at PAI-1 [3] (peptide 55 μM, 25° C.) is listed as “over 400 min”. On PAI-1 [3] (peptide .015 mM, 25° C.), the k came to 1.7 M⁻¹ s⁻¹, the kobs result is “.093 h⁻¹” and the “t1/2 of PAI-1 inactivation” value worked out at 7.5 h. For the same substance, on PAI-1 [3] (peptide .025 mM, 25° C.), the k result was “.99 M⁻¹ s⁻¹”, the kobs entry was “.089 h⁻¹” and the “t1/2 of PAI-1 inactivation” value was 7.8 h. For the same substance, at PAI-1 [3] (peptide .045 mM, 25° C.), the k stood at 6.9 M⁻¹ s⁻¹, the kobs came to 1.1 h⁻¹ and the “t1/2 of PAI-1 inactivation” value is “.62 h”. Also, at PAI-1 [3] (peptide .064 mM, 25° C.), the k is 42 M⁻¹ s⁻¹, the kobs stood at 9.6 h⁻¹ and the “t1/2 of PAI-1 inactivation” value was “.072 h”.

Regarding hirudin, in the test with normal human plasma (hirudin 0.17 μg/mL), the “effect of thrombus extracts on capacity to prolong the APTT” value was “no effect” and the “prolongation of the APTT” value is given as “approximately twice”.

Regarding “Ac-TEAAAATGAAATGR [SEQ ID NO: 5, TEAAAATGAAATGR]”, the kobs entry at PAI-1 [1] (peptide 1 mM) is “.097 h⁻¹”. The “half-life of PAI-1 decreased to” value on PAI-1 [1] was found to be 0.2 h. Besides, the “half-life of PAI inactivation” value on PAI-1 [3] (0.9 μM PAI, 1.2 mM peptide) is listed as “about 12 min”. In addition, on PAI-1 [3] (peptide 1 mM, 25° C.), the k result was “.027 M⁻¹ s⁻¹” and the “t1/2 of PAI-1 inactivation” value worked out at 7.2 h. Besides, at PAI-1 [3] (peptide 1.3 mM, 25° C.), the k entry is “.75 M⁻¹ s⁻¹”, the kobs was found to be 3.4 h⁻¹ and the “t1/2 of PAI-1 inactivation” value was “.20 h”.

As for heparin, in the test with normal human plasma (2.5 μL of thrombus extract per 100 μL of heparinized plasma), the “shortening of the APTT by thrombus extract” value was “approximately 20 seconds”. The “prolongation of the APTT” value in the test on normal human plasma (heparin 0.12 U/mL) is listed as “approximately 2 × control”.
